Results reported in patent US7589086B2, “Substituted pyrazolo[3,4-D]pyrimidines as anti-tumor agents” (Universita degli Studi di Siena, priority 2003, dated 2009).

Experiments:
[1] = test system: A431 human epidermoid carcinoma cells; test: Cell proliferation assay (MTT), A431; format: cell-based; conditions: compounds 0-100 μM, 72 hours, means ± SEM, NA = not active at 100 μM concentration
Procedure: (§1) A431 (2×10^4 cells/mL) were incubated in […] DMEM culture medium (BioWhittaker, Vallensbaek, DK). Differently, 8701-BC (2×10^4 cells/mL) were incubated in 100 μL RPMI 1640 culture medium (BioWhittaker, Vallensbaek, DK). Both cell lines were supplemented with 10% foetal calf serum (FCS; BioWhittaker, Vallensbaek, DK) and antibiotics (100 U/mL penicillin and 100 μg/mL streptomycin), at 37° C. in 5% CO2 for 8 hours, to allow adhesion. After adhesion, the medium was replaced with 100 μL medium supplemented with 0.5% FCS. After an overnight incubation, the medium was replaced and 100 μL DMEM with 10% FCS along with different concentrations (0-100 μM) of the studied compounds were added to cell cultures.
(§2) Following 72 hours, cells were treated with 10 μL of the 3-(4,5-dimethylthiazol-2-yl)-[…] (MTT) solution (5 mg/mL). Four hours later, 100 μL of propan-2-ol in a 0.04 M HCl solution were added to dissolve the formazan product. The microplates were read using an ELISA plate reader at 570 nm with a reference wavelength of 630 nm.

[2] = test system: 8701-BC breast cancer cells; test: Cell proliferation assay (MTT), 8701-BC; format: cell-based, human; conditions: exponentially growing 8701-BC cells, compounds 0-100 μM, 72 hours, means ± SEM, NA = not active at 100 μM concentration
Procedure: as §1, §2

Meg-01 cells = test: Cell proliferation assay, Meg-01; format: cell-based, human; conditions: compounds 0-100 μM, means ± SEM
Procedure: (§3) MEG-01 and K562 (2×10^4 cells/mL) were incubated in 100 μL RPMI 1640 culture medium (BioWhittaker, Vallensbaek, DK), supplemented with 10% foetal calf serum (FCS; BioWhittaker, Vallensbaek, DK) and antibiotics (100 U/mL penicillin and 100 μg/mL streptomycin), at 37° C. in 5% CO2. After an overnight incubation with 100 μL medium supplemented with 0.5% FCS, the medium was replaced and 100 μL RPMI 1640 with 10% FCS along with different concentrations (0-100 μM) of the studied compounds, were added to cell cultures.

K562 cells = test: Cell proliferation assay, K562; format: cell-based, human; conditions: compounds 0-100 μM, means ± SEM
Procedure: as §3

Src (Tyr416) = biological target: T1, Src (Tyr416) (Homo sapiens, UniProt P12931); test: Phospho-Src inhibition, immunoblot, 8701-BC cells after EGF stimulation; format: cell-based
T1 construct: subjected to immunoblot using phospho-specific antibodies against Src (Y416) and non pospho-specific Src as control; endogenous in cells; host or cells: 8701-BC breast cancer cells
Procedure: FIG. 3. […] Immunoblot analysis was performed using phospho-specific antibodies to Src (Tyr416). Filters were additionally reprobed with specific non-phospho anti-Src antibodies after stripping. Lane 1: cell control; lane 2: cells treated for 15 min with EGF (100 nM); lane 3-7: cells challenged for 3 h in the presence of 10 μM of the specified compound and then treated for 15 min with EGF (100 nM).
Immunoblot analysis was performed using phospho-specific antibodies to Src (Tyr416). Filters were additionally reprobed with specific non-phospho anti-Src antibodies after stripping.
Cells were treated as reported above but the cells were challenged with the compounds for 3 h, and then treated with 100 nM EGF (Cell Signaling Technology, MA, U.S.A.). […] later, cells were harvested and lysed in an appropriate buffer containing 1% Triton X-100. Proteins were quantitated by the BCA method (Pierce Rockford, U.S.A.). Equal amounts of total cellular protein were resolved by SDS-polyacrylamide gel electrophoresis, transferred to nitrocellulose filters and subjected to immunoblot using phospho-specific antibodies against Src (Y416) and non pospho-specific Src as control (Cell Signaling Technology, MA, U.S.A.).

[3] = 10 μM compound 3 h, then 100 nM EGF 15 min, immuno blot gel area

T1 sequence (P12931 whole entry): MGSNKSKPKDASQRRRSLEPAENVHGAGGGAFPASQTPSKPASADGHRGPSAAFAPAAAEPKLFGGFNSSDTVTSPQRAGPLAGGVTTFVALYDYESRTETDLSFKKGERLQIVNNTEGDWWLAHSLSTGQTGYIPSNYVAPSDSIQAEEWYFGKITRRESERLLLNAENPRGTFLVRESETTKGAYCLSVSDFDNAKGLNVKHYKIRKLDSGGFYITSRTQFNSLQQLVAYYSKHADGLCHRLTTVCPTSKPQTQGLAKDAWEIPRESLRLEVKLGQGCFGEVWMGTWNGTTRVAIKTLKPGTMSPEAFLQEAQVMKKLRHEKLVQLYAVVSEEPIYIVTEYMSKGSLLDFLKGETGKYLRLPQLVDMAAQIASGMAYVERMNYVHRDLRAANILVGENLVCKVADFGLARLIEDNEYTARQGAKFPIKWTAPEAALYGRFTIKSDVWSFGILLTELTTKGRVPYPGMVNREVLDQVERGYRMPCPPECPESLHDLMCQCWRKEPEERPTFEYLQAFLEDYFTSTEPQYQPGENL

Row | Compound | IC50 [1] [µM] | IC50 [2] [µM] | also measured
1 | CCSc1nc(N2CCOCC2)c2cnn(CC(Cl)c3ccccc3)c2n1 (centres unmarked) [Compound 2b] | 42.3 ± 0.7 | 79.8 ± 3 | 
2 | CSc1nc(NC2CCCCC2)c2cnn(CC(Cl)c3ccccc3)c2n1 (centres unmarked) [Compound 1k] | 43.8 ± 0.7 | 35.3 ± 0.5 | 
3 | CCSc1nc(NCc2ccccc2)c2cnn(CC(Cl)c3ccccc3)c2n1 (centres unmarked) [Compound 2f] |  | 42.8 ± 0.8 | 
4 | CCN(CC)c1nc(SC)nc2c1cnn2CC(Cl)c1ccccc1 (centres unmarked) [Compound 1h] | 70.2 ± 1.4 | 86.9 ± 1.2 | 
5 | CSc1nc(N2CCCCC2)c2cnn(CC(Cl)c3ccccc3)c2n1 (centres unmarked) [Compound 1a] | 37.6 ± 0.8 | 67.5 ± 1.2 | 
6 | CCOCCNc1nc(SC)nc2c1cnn2CC(Cl)c1ccccc1 (centres unmarked) [Compound 1c] | 32.4 ± 0.6 | 59.8 ± 3.1 | 
7 | CCCNc1nc(SC)nc2c1cnn2CC(Cl)c1ccccc1 (centres unmarked) [Compound 1g] | 32.1 ± 0.5 | 64.1 ± 0.5 | 
8 | CCSc1nc(N2CCCC2)c2cnn(CC(Cl)c3ccccc3)c2n1 (centres unmarked) [Compound 2e] | 89.3 ± 1.7 | 72.1 ± 1.7 | 
9 | CCCNc1nc(SCC)nc2c1cnn2CC(Cl)c1ccccc1 (centres unmarked) [Compound 2d] | 79.4 ± 1.8 | 28.6 ± 1.6 | 
10 | CSc1nc(N2CCCCCC2)c2cnn(CC(Cl)c3ccccc3)c2n1 (centres unmarked) [Compound 1j] |  | 54.4 ± 0.8 | 
11 | CSc1nc(NCc2ccccc2)c2cnn(CC(Cl)c3ccccc3)c2n1 (centres unmarked) [Compound 1e] | 24.6 ± 0.7 | 53.2 ± 1.2 | 
12 | CSc1nc(N2CCOCC2)c2cnn(CC(Cl)c3ccccc3)c2n1 (centres unmarked) [Compound 1b] | 26.9 ± 0.4 | 64.2 | 
13 | CCCCNc1nc(SC)nc2c1cnn2CC(Cl)c1ccccc1 (centres unmarked) [Compound 1d] | 27.4 ± 0.5 | 63.8 ± 2.1 | 
14 | CSc1nc(N2CCCC2)c2cnn(CC(Cl)c3ccccc3)c2n1 (centres unmarked) [Compound 1i] | 32.3 ± 0.8 | 56.3 ± 2 | 
15 | CCCCNc1nc(SCC)nc2c1cnn2CC(Cl)c1ccccc1 (centres unmarked) [Compound 2c] | 40.2 ± 0.4 | 38.8 ± 0.5 | IC50 (K562 cells): 27.4 ± 0.6 µM
16 | CSc1nc(NCCc2ccccc2)c2cnn(CC(Cl)c3ccccc3)c2n1 (centres unmarked) [Compound 1f] | 27.1 ± 0.2 | 31.2 | Phospho-Src/Non-phospho-Src ratio (%) (Src (Tyr416); 10 μM compound 3 h, then 100 nM EGF 15 min, Control + EGF 56, Control 23): 9%; Non-phospho-Src (Src (Tyr416); [3]): 168 area units; Phospho-Src (Tyr416) (Src (Tyr416); [3]): 15 area units; inhibition of Src phosphorylation compared with PP2 (in words) (Src (Tyr416); immunoblot, phospho-specific antibodies to Src (Tyr416)): inhibit Src phosphorylation better than the reference compound PP2

Second part, led by results:

Row | IC50 [1] [µM] | IC50 [2] [µM] | Compound | also measured
17 | 69.3 ± 1.2 |  | C(=Cn1ncc2c(N3CCCCC3)ncnc21)c1ccccc1 [Compound 4a] | 
18 | 59.2 ± 1 | 58.8 ± 0.7 | C(=Cn1ncc2c(N3CCOCC3)ncnc21)c1ccccc1 [Compound 4b] | 
19 | 80.1 ± 2.5 | 45.6 ± 0.5 | OC(Cn1ncc2c(NCCc3ccccc3)ncnc21)c1ccccc1 (centres unmarked) [Compound 3f] | 
20 |  | 43.4 ± 0.4 | CCOCCNc1ncnc2c1cnn2C=Cc1ccccc1 [Compound 4f] | 
21 | 43.6 ± 1.3 | 93.7 ± 0.6 | C(=Cn1ncc2c(N3CCCCCC3)ncnc21)c1ccccc1 [Compound 4d] | 
22 | 91.2 ± 1.4 |  | CCCNc1ncnc2c1cnn2CC(O)c1ccccc1 (centres unmarked) [Compound 3d] | 
23 | 15 ± 1.2 | 64.7 ± 0.6 | C(=Cn1ncc2c(NCCc3ccccc3)ncnc21)c1ccccc1 [Compound 4j] | 
24 | 11.7 ± 0.1 | 65 ± 0.3 | C(=Cn1ncc2c(NCc3ccccc3)ncnc21)c1ccccc1 [Compound 4i] | 
25 | 54.1 ± 0.7 |  | CSc1nc(N2CCCCC2)c2cnn(C=Cc3ccccc3)c2n1 [Compound 4m] | 
26 | 12.7 ± 0.7 |  | OC(Cn1ncc2c(NCc3ccccc3)ncnc21)c1ccccc1 (centres unmarked) [Compound 3e] | 
27 | 91.5 ± 2 | 80.5 ± 6.8 | CCCCNc1ncnc2c1cnn2C=Cc1ccccc1 [Compound 4c] | 
28 | 86.9 ± 2.1 |  | OC(Cn1ncc2c(N3CCOCC3)ncnc21)c1ccccc1 (centres unmarked) [Compound 3a] | 
29 | 49.8 ± 0.8 |  | CCSc1nc(N2CCOCC2)c2cnn(C=Cc3ccccc3)c2n1 [Compound 4k] | IC50 (Meg-01 cells): 12.1 ± 1.1 µM; IC50 (K562 cells): 75.1 ± 1.7 µM
30 | 33.6 ± 1.2 |  | CCCCNc1ncnc2c1cnn2CC(Br)c1ccccc1 (centres unmarked) [Compound 5d] | IC50 (Meg-01 cells): 19.4 ± 0.4 µM; IC50 (K562 cells): 34.3 ± 0.9 µM
31 | 95.7 ± 2.3 | 54.4 ± 1.5 | OC(Cn1ncc2c(NCc3ccc(F)cc3)ncnc21)c1ccccc1 (centres unmarked) [Compound 3g] | 
32 | 28.2 ± 0.4 |  | BrC(Cn1ncc2c(NC3CCCCC3)ncnc21)c1ccccc1 (centres unmarked) [Compound 5i] | IC50 (Meg-01 cells): 32.7 ± 0.3 µM; IC50 (K562 cells): 38.2 ± 0.8 µM
33 | 20.2 ± 0.4 |  | COc1cc2ncnc(Nc3cccc(Cl)c3)c2cc1OC [AG1478, reference compound] | 
34 | 61.2 ± 1 | 57.2 ± 0.8 | CCCNc1ncnc2c1cnn2C=Cc1ccccc1 [Compound 4e] | 
35 | 83.2 ± 1.8 |  | CCCCNc1ncnc2c1cnn2CC(O)c1ccccc1 (centres unmarked) [Compound 3b] | 
36 | 63.1 ± 1 | 50.4 ± 0.1 | C(=Cn1ncc2c(N3CCCC3)ncnc21)c1ccccc1 [Compound 4g] | 
37 | 39.8 ± 0.6 |  | CSc1nc(NCc2ccccc2)c2cnn(C=Cc3ccccc3)c2n1 [Compound 4l] | 
38 | 13.4 ± 0.2 |  | OC(Cn1ncc2c(N3CCCCC3)ncnc21)c1ccccc1 (centres unmarked) [Compound 3c] | 
39 | 35.7 ± 0.6 |  | CSc1nc(N2CCOCC2)c2cnn(C=Cc3ccccc3)c2n1 [Compound 4n] | 
40 |  | 50.5 ± 1.3 | C(=Cn1ncc2c(NC3CCCCC3)ncnc21)c1ccccc1 [Compound 4h] | 
